From ChEMBL document CHEMBL4312021, “Discovery of [1,2,4]-triazolo [1,5-a]pyrimidine-7(4H)-one derivatives as positive modulators of GABAA1 receptor with potent anticonvulsant activity and low toxicity” (Eur J Med Chem, 2020)
Values after ≈ are worked out from the molar mass of the structure shown. Active and inactive are the calls of the source. The rule behind the calls is not given here.

Legend:
[1] = Neurotoxicity in ip dosed Kunming mouse assessed as reduction in equilibrium measured after 30 mins by rotarod test; format: toxicity, organism-based; conditions: in vivo
Mus musculus [2] = experiment: Anticonvulsant activity in Kunming mouse assessed as reduction in MES-induced seizure at 30 to 300 mg/kg, ip measured after 30 mins; format: functional, organism-based
Mus musculus [3] = species: Mus musculus; experiment: Inhibition of sodium channel in C57BL/6 mouse primary cortical neurons at 10 uM by manual patch clamp electrophysiology method
Mus musculus [4] = experiment: Anticonvulsant activity in Kunming mouse assessed as reduction in ScPTZ-induced seizure at 100 mg/kg, ip administered before 30 mins of ScPTZ stimulation; format: functional, organism-based
[5] = target: T1, GABA-A receptor; alpha-1/beta-2/gamma-2 (Homo sapiens, UniProt P14867+P18507+P47870); experiment: Positive allosteric modulation of recombinant human GABA receptor alpha1beta2gamma2 expressed in CHO cells at 30 uM in presence of GABA and measured for 120 secs by FMP dye based FLIPR assay (reference value: 0.25 +/- 0.03 uM); format: cell-based
T1 sequence (P14867 whole entry): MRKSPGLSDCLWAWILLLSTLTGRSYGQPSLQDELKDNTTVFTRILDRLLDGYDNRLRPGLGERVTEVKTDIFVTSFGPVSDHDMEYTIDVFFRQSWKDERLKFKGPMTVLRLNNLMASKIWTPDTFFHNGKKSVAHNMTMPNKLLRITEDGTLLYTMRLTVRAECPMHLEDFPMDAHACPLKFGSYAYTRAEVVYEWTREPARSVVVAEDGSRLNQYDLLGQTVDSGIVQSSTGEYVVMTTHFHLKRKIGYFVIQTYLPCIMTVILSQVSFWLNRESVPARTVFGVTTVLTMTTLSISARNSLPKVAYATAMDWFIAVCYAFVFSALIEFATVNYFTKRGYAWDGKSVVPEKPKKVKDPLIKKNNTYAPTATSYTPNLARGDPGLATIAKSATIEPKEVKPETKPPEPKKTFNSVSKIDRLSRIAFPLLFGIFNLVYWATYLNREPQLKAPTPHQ
T1 sequence (P47870 whole entry): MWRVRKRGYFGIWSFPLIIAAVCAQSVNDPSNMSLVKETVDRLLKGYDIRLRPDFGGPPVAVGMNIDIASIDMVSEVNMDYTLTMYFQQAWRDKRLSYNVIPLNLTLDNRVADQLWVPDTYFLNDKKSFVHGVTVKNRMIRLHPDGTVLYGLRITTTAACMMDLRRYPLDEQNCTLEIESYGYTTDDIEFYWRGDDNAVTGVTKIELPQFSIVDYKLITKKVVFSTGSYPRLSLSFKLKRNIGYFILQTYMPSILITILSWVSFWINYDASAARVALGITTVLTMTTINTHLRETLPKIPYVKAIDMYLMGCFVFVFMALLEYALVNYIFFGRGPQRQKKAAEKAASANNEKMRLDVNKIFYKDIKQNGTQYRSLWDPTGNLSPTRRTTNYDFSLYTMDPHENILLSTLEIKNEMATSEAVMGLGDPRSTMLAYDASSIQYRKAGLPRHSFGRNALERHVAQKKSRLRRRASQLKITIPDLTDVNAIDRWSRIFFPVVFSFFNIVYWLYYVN
T1 sequence (P18507 whole entry): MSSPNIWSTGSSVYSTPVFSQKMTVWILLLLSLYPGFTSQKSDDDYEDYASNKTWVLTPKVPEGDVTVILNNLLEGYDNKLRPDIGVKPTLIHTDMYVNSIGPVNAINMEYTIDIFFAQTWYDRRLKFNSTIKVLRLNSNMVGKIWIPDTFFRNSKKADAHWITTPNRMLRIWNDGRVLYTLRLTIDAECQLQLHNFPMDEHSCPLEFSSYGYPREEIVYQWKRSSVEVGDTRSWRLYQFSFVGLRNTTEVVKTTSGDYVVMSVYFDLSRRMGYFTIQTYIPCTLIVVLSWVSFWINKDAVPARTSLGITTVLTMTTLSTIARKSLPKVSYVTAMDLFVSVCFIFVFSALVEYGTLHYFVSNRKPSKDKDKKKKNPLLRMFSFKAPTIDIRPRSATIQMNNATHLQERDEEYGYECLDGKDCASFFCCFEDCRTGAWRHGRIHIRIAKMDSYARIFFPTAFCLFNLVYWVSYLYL

[6] = Protective index, ratio of TD50 for neurotoxicity in ip dosed Kunming mouse to ED50 for anticonvulsant activity in ip dosed Kunming mouse; format: toxicity, organism-based; conditions: in vivo, read-out: Ratio TD50/ED50
Mus musculus [7] = experiment: Anticonvulsant activity in Kunming mouse assessed as reduction in ScPTZ-induced seizure at 300 mg/kg, ip administered before 30 mins of ScPTZ stimulation; format: functional, organism-based
Cortical neurone = experiment: Antiepileptic actvity in C57BL/6 mouse Primary cortical neuron assessed as reduction in 4-AP-induced excitability measured for 8 mins by Fluo-8/AM staining based FLIPR assay; format: functional, cell-based; conditions: C57BL/6, Cortical neurone
Mus musculus [8] = species: Mus musculus; experiment: Inhibition of sodium channel in C57BL/6 mouse Primary cortical neurons at 100 uM by manual patch clamp electrophysiology method
Mus musculus [9] = experiment: Anticonvulsant activity in Kunming mouse assessed as reduction in ScPTZ-induced seizure at 30 mg/kg, ip administered before 30 mins of ScPTZ stimulation; format: functional, organism-based
Mus musculus [10] = experiment: Anticonvulsant activity in ip dosed Kunming mouse assessed as reduction in ScPTZ-induced seizure administered before 30 mins of ScPTZ stimulation; format: functional; conditions: 0.5 h
[11] = target: T2, GABA-A receptor; alpha-1/beta-2/gamma-2 (Homo sapiens) (UniProt P14867+P47870+P18507); experiment: (§1) Activation of recombinant human GABA receptor alpha1beta2gamma2 expressed in CHO cells in presence of GABA and measured for 120 secs by FMP dye based FLIPR assay; format: cell-based
[12] = target: T1, GABA-A receptor; alpha-1/beta-2/gamma-2; experiment: as §1; format: cell-based
[13] = target: T2, GABA-A receptor; alpha-1/beta-2/gamma-2 (Homo sapiens); experiment: Activation of recombinant human GABA receptor alpha1beta2gamma2 expressed in CHO cells and measured for 120 secs by FMP dye based FLIPR assay; format: cell-based
[14] = Solubility of compound in water; format: physicochemical
[15] = Solubility of compound in DMSO; format: physicochemical
Mus musculus [16] = experiment: Anticonvulsant activity in ip dosed CF-1 mouse assessed as reduction in ScPTZ-induced seizure administered before 30 mins of ScPTZ stimulation; format: functional; conditions: CF-1, ip, 0.5 h

| Structure (SMILES) | Activity (Mus musculus [2]) | Activity (Mus musculus [4]) | Activity (Mus musculus [7]) | IC50 (Cortical neurone) [µM] | Activity (Mus musculus [9]) | further results |
| --- | --- | --- | --- | --- | --- | --- |
| Cc1ccc(-c2nc3[nH]c(Cc4ccccc4)cc(=O)n3n2)cc1 | inactive | Active | Active | 0.334 | Active | TD50 at 0.5 h [1]: 372 mg/kg; inhibition (Mus musculus [3]): inactive; EC50 [5]: 0.24 µM; selectivity ratio [6]: 9.09; inhibition (Mus musculus [8]): Active; ED50 (Mus musculus [10]): 41 mg/kg; Activity [11]: Dose-dependent effect; EC50 [12]: 12 µM; Activity [13]: inactive |
| Cc1ccc(Cc2cc(=O)n3nc(-c4ccccc4)nc3[nH]2)cc1 | inactive | inactive | inactive |  | inactive |  |
| CCCCCCCc1nc2[nH]c(-c3ccc(Cl)cc3)cc(=O)n2n1 | inactive | inactive | inactive |  | inactive |  |
| Cc1ccc(-c2nc3[nH]c(-c4ccccc4)cc(=O)n3n2)cc1 |  |  |  | 3.21 |  | solubility [14]: 14.3 µg/mL (≈ 0.0473 mM); solubility [15]: 3000 µg/mL (≈ 9.92 mM) |
| CCCCCc1nc2[nH]c(-c3ccccc3)cc(=O)n2n1 | inactive | inactive | inactive |  | inactive |  |
| Cc1ccc(Cc2cc(=O)n3nc(-c4ccc(C)cc4)nc3[nH]2)cc1 | inactive | inactive | inactive |  | inactive |  |
| O=c1cc(-c2ccccc2)[nH]c2nc(Cc3ccccc3)nn12 | inactive | Active | Active | 1.31 | Active |  |
| NC(=O)N1c2ccccc2C=Cc2ccccc21 [CARBAMAZEPINE] |  |  |  |  |  | ED50 (Mus musculus [16]): > 100 mg/kg |
| CCCC(CCC)C(=O)O [VALPROIC ACID] |  |  |  |  |  | ED50 (Mus musculus [16]): 149 mg/kg |
| CCCCCc1nc2[nH]c(-c3ccc(Cl)cc3)cc(=O)n2n1 | inactive | Active | inactive | 8.25 | Active |  |
| O=c1cc(-c2ccccc2)[nH]c2nc(Cc3ccc(Cl)cc3)nn12 | inactive | Active | Active | 1.83 | Active | TD50 at 0.5 h [1]: 211 mg/kg; selectivity ratio [6]: 3.45; ED50 (Mus musculus [10]): 61.1 mg/kg |
| O=C1NC(=O)C(c2ccccc2)(c2ccccc2)N1 [PHENYTOIN] |  |  |  |  |  | ED50 (Mus musculus [16]): > 300 mg/kg |
| O=c1cc(Cc2ccccc2)[nH]c2nc(Cc3ccc(F)cc3)nn12 | inactive | inactive | inactive |  | inactive |  |
| O=c1cc(Cc2ccc(Cl)cc2)[nH]c2nc(Cc3ccc(F)cc3)nn12 | inactive | Active | Active | 3.65 | inactive |  |
| Cc1ccc(Cc2nc3[nH]c(-c4ccc(Cl)cc4)cc(=O)n3n2)cc1 | inactive | inactive | inactive | 5.44 | inactive |  |
| CCCCCCCc1nc2[nH]c(-c3ccccc3)cc(=O)n2n1 | inactive | inactive | inactive |  | inactive |  |

| Structure (SMILES) | Activity (Mus musculus [2]) | Activity (Mus musculus [4]) | Activity (Mus musculus [7]) | IC50 (Cortical neurone) [µM] | Activity (Mus musculus [9]) | further results |
| --- | --- | --- | --- | --- | --- | --- |
| O=c1cc(Cc2ccccc2)[nH]c2nc(Cc3ccccc3)nn12 | inactive | inactive | inactive |  | inactive |  |
| CCCCCCc1nc2[nH]c(-c3ccccc3)cc(=O)n2n1 | inactive | inactive | inactive |  | inactive |  |
| Cc1ccc(Cc2nc3[nH]c(-c4ccccc4)cc(=O)n3n2)cc1 | inactive | Active | Active | 1.15 | Active | TD50 at 0.5 h [1]: 281 mg/kg; selectivity ratio [6]: 4.26; ED50 (Mus musculus [10]): 65.8 mg/kg |
| O=c1cc(-c2ccccc2)[nH]c2nc(Cc3ccc(F)cc3)nn12 | inactive | Active | Active | 2.52 | Active | TD50 at 0.5 h [1]: 261 mg/kg; selectivity ratio [6]: 3.67; ED50 (Mus musculus [10]): 71.6 mg/kg |
| O=c1cc(-c2ccc(Cl)cc2)[nH]c2nc(Cc3ccccc3)nn12 | inactive | inactive | inactive |  | inactive |  |
| CCCCCCc1nc2[nH]c(-c3ccc(Cl)cc3)cc(=O)n2n1 | inactive | Active | Active | 8.72 | Active |  |
| Cc1ccc(-c2nc3[nH]c(Cc4ccc(F)cc4)cc(=O)n3n2)cc1 | inactive | inactive | inactive |  | inactive |  |
| Cc1ccc(Cc2nc3[nH]c(Cc4ccccc4)cc(=O)n3n2)cc1 | inactive | Active | Active | 2.47 | Active |  |
| CCCCc1nc2[nH]c(-c3ccc(Cl)cc3)cc(=O)n2n1 | inactive | inactive | inactive |  | inactive |  |
| CCC1(c2ccccc2)C(=O)NC(=O)NC1=O [PHENOBARBITAL] |  |  |  |  |  | ED50 (Mus musculus [16]): 13.2 mg/kg |
| CCCCc1nc2[nH]c(-c3ccccc3)cc(=O)n2n1 | inactive | inactive | inactive |  | inactive |  |
| O=c1cc(Cc2ccccc2)[nH]c2nc(Cc3ccc(Cl)cc3)nn12 | inactive | Active | inactive | 4.28 | inactive |  |
| O=c1cc(-c2ccc(Cl)cc2)[nH]c2nc(-c3ccccc3)nn12 |  |  |  | 2.35 |  | solubility [14]: 14.3 µg/mL (≈ 0.0443 mM); solubility [15]: 3000 µg/mL (≈ 9.29 mM) |
| O=c1cc(Cc2ccc(Cl)cc2)[nH]c2nc(Cc3ccccc3)nn12 | inactive | inactive | Active |  | inactive |  |
| Cc1ccc(Cc2cc(=O)n3nc(Cc4ccccc4)nc3[nH]2)cc1 | inactive | inactive | inactive |  | inactive |  |
| Cc1ccc(-c2nc3[nH]c(Cc4ccc(Cl)cc4)cc(=O)n3n2)cc1 | inactive | inactive | Active |  | inactive |  |
